Reference: patent US9359298B2, “Cajanine structure analogous compound, preparation method and use” (INSTITUTE OF MEDICINAL BIOTECHNOLOGY, CHINESE ACADEMY OF …, priority 2011, dated 2016)
Converted amounts (≈) assume the structure as drawn. Like-named read-outs stand apart in the source and are kept apart here.

Columns and labels:
Type in all cases: cell-based
[1] = tested on: Influenza A virus (hanfang359/95); assay: Determination of anti-influenza virus activity (CPE in MDCK cells); details: for IC50: Influenza A virus, MDCK, 36 h; for anti-influenza virus activities compared with the lead compound cajanine: statement in words
Coxsackie virus B6 = assay: Coxsackie virus activity assay (CPE in Vero cells); details: Vero, read-out: COX-B6 IC50, Vero cells, about 100TCID50, CPE, Reed-Muench
HCV = assay: Anti-hepatitis C virus (HCV) activity assay (HCV RNA in Huh7.5 cells); details: for EC50: Hepatitis C virus, Huh7.5, 72 h, Huh7.5 cells, 72 h, HCV RNA by RT-PCR, Reed-Muench, read-out: HCV EC50; for anti-HCV viral activity: statement in words
Protocol: Inoculate Huh7.5 cells into 96-well plates to a density of 3×10^4 cells/cm^2, culture for 24h, infect the cells with 45 IU/cell HCV supernatant, meanwhile, add drug solutions or solvent control for treatment.

HIV-1 III B virus = assay: Anti-HIV activity assay (P24 antigen in MT-4 cells); details: for IC50: Human immunodeficiency virus 1, MT4, 96 h, read-out: HIV IC50; for anti-HIV viral activity: statement in words
PC12 cells [2] = assay: Neuroprotective activity assay, serum-deprived injury to PC12 cells (MTT); details: for viability at 10 µM: Rattus norvegicus, PC-12, 48 h, 10 μM test compound, 48 h, Control 100.0 ± 9.2, Model 69.3 ± 4.1, read-out: serum-deprived (surviving PC12 cells, MTT 570 nm); for protective effect on serum-deprived injury to PC12 cells: statement in words
Protocol: (§1) Discard the original culture media from confluent monolayers of PC12 cells (simulated neuronal cells), add DMEM complete medium with 5% FBS, 5% horse serum gently beat upon the cells with a pipette to completely disperse them, inoculate 100 μl cell suspension at a density of […] per well to 96 hole plates treated with poly-lysine (0.1 mg/ml) in advance, culture for 24h. Divide the experimenting cells into control group, model group and dosing groups. Add complete medium to the control group. Model groups includes rotenone group and serum-deprived group, add rotenone to the corresponding modules with a final concentration of 4 μM rotenone to take effect on the cells for 48 h, add serum-deprived groups with serum-free DMEM medium to take effect on the cells for 48 h. Dosing groups also includes two groups, one using rotenone module as model, another using serum-deprived module as model, and both add in 10 μM test compounds during modeling. 48h later, add 10 μl 5 mg/ml MTT, subsequently discard the supernatant 4h later and add in 150 μl DMSO, measure 570 nm absorbance to represent the numbers of surviving cells.

PC12 cells [3] = assay: Neuroprotective activity assay, rotenone injury to PC12 cells (MTT); details: for viability at 10 µM: Rattus norvegicus, PC-12, 48 h, 10 μM test compound, 4 μM rotenone, 48 h, Control 100.0 ± 8.9, Model 73.2 ± 7.8, read-out: rotenone (surviving PC12 cells, MTT 570 nm); for protective effect on rotenone injury to PC12 cells: statement in words
Protocol: as §1

[4] = MT-4 cells, HIV-1 III B 100TCID50, 96 h, P24 antigen

Row | Structure (SMILES) | IC50 [1] [µg/mL] | IC50 (Coxsackie virus B6) [µg/mL] | EC50 (HCV) [µg/mL] | anti-HCV viral activity (HCV) | IC50 (HIV-1 III B virus; [4]) [µg/mL] | anti-HIV viral activity (HIV-1 III B virus) | viability at 10 µM (PC12 cells [2]) [%] | viability at 10 µM (PC12 cells [3]) [%] | anti-influenza virus activities compared with the lead compound cajanine [1] | protective effect on serum-deprived injury to PC12 cells (PC12 cells [2]) | protective effect on rotenone injury to PC12 cells (PC12 cells [3]) | IC50 (HIV-1 III B virus) [µg/mL]
1 | COc1cc(/C=C/c2cc(O)cc(O)n2)c(C(=O)O)c(O)c1CC=C(C)C [1a′, 2-hydroxy-3-isopentenyl-4-methoxy-6-[(E)-2-(4,6-dihydroxy-2-yl)ethenyl]benzoic acid] | 0.19 (≈ 0.512 µM) | 0.36 (≈ 0.969 µM) | 0.94 (≈ 2.53 µM) | stronger anti-HIV, HCV viral activities | 1.38 (≈ 3.72 µM) | stronger anti-HIV, HCV viral activities | 88.7 ± 4.9 | 87.2 ± 4.3 | – | – | – | –
2 | COc1cc(/C=C(\C(=O)O)c2ccccc2)c(C(=O)O)c(O)c1CC=C(C)C [Compound 1s] | 0.54 (≈ 1.41 µM) | 0.85 (≈ 2.22 µM) | 0.84 (≈ 2.2 µM) | stronger anti-HIV, HCV viral activities | 0.75 (≈ 1.96 µM) | stronger anti-HIV, HCV viral activities | 89.8 ± 3.2 | 88.7 ± 6.1 | – | – | – | –
3 | COc1ccnc(/C=C/c2cc(O)c(CC=C(C)C)c(OC)c2)c1 [Compound 10z, 2-isopentenyl-3-methoxy-5-[(E)-2-(4-methoxypyrid-2-yl)ethenyl]phenol] | 0.32 (≈ 0.983 µM) | 0.84 (≈ 2.58 µM) | 1.19 (≈ 3.66 µM) | – | 2.83 (≈ 8.7 µM) | – | 84.6 ± 3.9 | 87 ± 5.1 | significantly stronger than the lead compound cajanine | – | – | –
4 | COC(=O)c1c(/C=C/c2ccc(OC(C)=O)cc2)cc(OC)c(CC=C(C)C)c1O [Compound 8q, methyl 2-hydroxy-3-isopentenyl-4′-methoxy-6-[(E)-4-acetoxystyryl]benzoate] | 8.23 (≈ 20.1 µM) | 5.23 (≈ 12.7 µM) | 7.63 (≈ 18.6 µM) | – | 2.1 (≈ 5.12 µM) | – | 79.8 ± 5.8 | 80.5 ± 6.5 | – | the strongest activities | the strongest activities | –
5 | COc1cc(/C=C/c2cccc(O)n2)cc(O)c1CC=C(C)C [10g′] | 0.87 (≈ 2.79 µM) | 0.12 (≈ 0.385 µM) | 2.3 (≈ 7.39 µM) | – | 3.93 (≈ 12.6 µM) | – | 71 ± 5.2 | 63.5 ± 2.1 | – | – | – | –
6 | COc1cc(/C=C/c2ccccc2)c(C(=O)O)c(OC)c1CC=C(C)C [Compound 15, 2-methoxy-3-isopentenyl-4-methoxy-6-[(E)-styryl]benzoic acid] | > 0.23 | > 2.06 | 0.83 (≈ 2.36 µM) | – | 1.43 (≈ 4.06 µM) | – | 74.1 ± 2.5 | 83.1 ± 5.7 | – | – | – | –
7 | COC(=O)/C(=C\c1cc(OC)c(CC=C(C)C)c(O)c1C(=O)OC)c1ccccc1 [Compound 8s] | 0.24 (≈ 0.585 µM) | 3.52 (≈ 8.58 µM) | 0.84 (≈ 2.05 µM) | stronger anti-HIV, HCV viral activities | 0.52 (≈ 1.27 µM) | stronger anti-HIV, HCV viral activities | 79.8 ± 5.2 | 76.8 ± 5.4 | – | – | – | –
8 | COc1cc(/C=C/c2ccccc2)c(C(=O)NC2CCNCC2)c(O)c1CC=C(C)C [Compound 9f] | 0.31 (≈ 0.737 µM) | 0.24 (≈ 0.571 µM) | 6.09 (≈ 14.5 µM) | – | 0.14 (≈ 0.333 µM) | – | 58.9 ± 2.6 | 68.5 ± 4.9 | – | – | – | –
9 | COc1cc(/C=C/c2ccncc2)c(C(=O)O)c(O)c1CC=C(C)C [Compound 1r, 2-hydroxy-3-isopentenyl-4-methoxy-6-[(E)-2-(pyridin-4-yl)ethenyl]benzoic acid] | 6.36 (≈ 18.7 µM) | 6.35 (≈ 18.7 µM) | 6.79 (≈ 20 µM) | – | 6.53 (≈ 19.2 µM) | – | 84.3 ± 6.3 | 86.3 ± 5.4 | – | the strongest activities | the strongest activities | –
10 | COc1cc(/C=C/c2ccccc2)cc(O)c1CC=C(C)C [Compound 10, Cajanine A] | 0.27 (≈ 0.917 µM) | 0.69 (≈ 2.34 µM) | 0.56 (≈ 1.9 µM) | stronger anti-HIV, HCV viral activities | 0.21 (≈ 0.713 µM) | stronger anti-HIV, HCV viral activities | 34.7 ± 9.8 | 69.9 ± 5.8 | significantly stronger than the lead compound cajanine | – | – | –
11 | COc1cc(/C=C/c2ccccc2)c(C(=O)O)c(OC(=N)N)c1CC=C(C)C [Compound 27b, 2-iso-ureido-3-isopentenyl-4-methoxy-6-[(E)-styryl]benzoic acid] | 2.14 (≈ 5.63 µM) | 1.24 (≈ 3.26 µM) | 1.83 (≈ 4.81 µM) | – | 4.91 (≈ 12.9 µM) | – | 91.5 ± 6.1 | 92.3 ± 2.6 | – | the strongest activities | the strongest activities | –
12 | COc1cc(/C=C/c2ccccc2)cc(O)c1C/C=C(\C)CCC=C(C)C [Compound 10o] | > 2.06 | 0.96 (≈ 2.65 µM) | 1.32 (≈ 3.64 µM) | stronger anti-HIV, HCV viral activities | 0.96 (≈ 2.65 µM) | stronger anti-HIV, HCV viral activities | 86.3 ± 3.8 | 87.6 ± 5.4 | – | the strongest activities | the strongest activities | –
13 | COC(=O)c1c(/C=C/c2ccc(OC)cc2)cc(OC)c(CC=C(C)C)c1O [Compound 8c, methyl 2-hydroxy-3-isopentenyl-4-methoxy-6-[(E)-4-methoxystyryl]-benzoate] | > 2.06 | 4.79 (≈ 12.5 µM) | 3.06 (≈ 8 µM) | – | 1.99 (≈ 5.2 µM) | – | 67.3 ± 10 | 71.9 ± 6.1 | – | – | – | –
14 | COC(=O)c1c(/C=C/c2ccccc2)cc(OC)cc1OC [Compound 6, methyl 2,4-dimethoxy-6-[(E)-styryl]benzoate] | > 2.05 | > 2.06 | > 12.2 | – | – | – | 62.4 ± 7 | 74.4 ± 5.2 | – | – | – | > 2.06
15 | CC/C=C/c1cc(O)c(CC=C(C)C)c(OC)c1 [Compound 10h, 2-isopentenyl-3-methoxy-5-[(E)-buten-1-yl]phenol] | 0.74 (≈ 3 µM) | > 2.06 | 0.74 (≈ 3 µM) | – | 0.96 (≈ 3.9 µM) | – | 65.8 ± 9.2 | 67.8 ± 8.5 | – | – | – | –
16 | COc1cc(/C=C/c2cc(O)ccn2)cc(O)c1CC=C(C)C [10a′, 2-isopentenyl-3-methoxy-5-[(E)-2-(4-hydroxypyrid-2-yl)ethenyl]phenol] | 0.17 (≈ 0.546 µM) | 0.41 (≈ 1.32 µM) | 1.41 (≈ 4.53 µM) | – | 1.33 (≈ 4.27 µM) | – | 86.3 ± 1.2 | 89.2 ± 3.2 | – | – | – | –
17 | COc1cc(/C=C/c2ccccc2)c(C(N)=O)c(O)c1CC=C(C)C [Compound 32, 2-hydroxy-3-isopentenyl-4-methoxy-6-[(E)-styryl]benzamide] | 0.21 (≈ 0.622 µM) | 0.54 (≈ 1.6 µM) | 1.37 (≈ 4.06 µM) | – | 0.16 (≈ 0.474 µM) | – | 94.5 ± 2.3 | 92.3 ± 1.2 | significantly stronger than the lead compound cajanine | the strongest activities | the strongest activities | –
18 | COc1cccc(OC)c1/C=C/c1cc(O)c(CC=C(C)C)c(OC)c1 [Compound 10d, 2-isopentenyl-3-methoxy-5-[(E)-2′,6′-dimethoxy-styryl]phenol] | > 6.17 | > 2.05 | 2.37 (≈ 6.69 µM) | – | 1.05 (≈ 2.96 µM) | – | 79.3 ± 5.4 | 78.9 ± 6.1 | – | the strongest activities | the strongest activities | –
19 | COc1ccc(/C=C/c2cc(O)c(CC=C(C)C)c(OC)c2)cc1 [Compound 10c, 2-isopentenyl-3-methoxy-5-[(E)-4′-methoxystyryl]phenol] | > 6.17 | 2.35 (≈ 7.24 µM) | 7.17 (≈ 22.1 µM) | – | 0.35 (≈ 1.08 µM) | – | 81.6 ± 2.6 | 80.3 ± 6.2 | – | the strongest activities | the strongest activities | –
20 | COc1cc(/C=C/c2ccncc2)cc(O)c1CC=C(C)C [Compound 10r, 2-isopentenyl-3-methoxy-5-[(E)-(pyrid-4-yl)ethenyl]phenol] | > 0.69 | 3.23 (≈ 10.9 µM) | 1.71 (≈ 5.79 µM) | – | 1.73 (≈ 5.86 µM) | – | 68.5 ± 2.4 | 58.4 ± 6.5 | – | – | – | –
